Laboratory results published in paper PMC8277129, “Bioconcentration of Several Series of Cationic Surfactants in Rainbow Trout” (Environmental Science & Technology, 2021).
“And” between values parts separate entries of the source, which are not always exact repeats. Equal values may be shown once. Read-outs that look alike come from different tables or passages of the source. Marks after values point to notes of the source that are not given here. Values belong to the compound of their own block, whether it stands above or below them.

Tests used:
[1] = set-up: method as in REACH dossier; conditions: aqueous; ref REACH dossier; cited from earlier work
[2] = Bioconcentration (BCF) experiment based on OECD 305, aqueous exposure to surfactant mixtures; assay type: in vivo, Oncorhynchus mykiss; conditions: whole fish, read-out: measured total elimination rate constant (kT) (converted)
Protocol: (§1) Juvenile rainbow trout were purchased from EM lax in Västervik, Sweden, and held in the aquaria facility for one month prior to starting the experiment on August 28, 2018. Ethical approval for the experiments was obtained from Stockholm’s djurförsöksetiska nämnd (decision 9967–2017). The experiment was conducted in six 350 L fiberglass aquaria with a water renewal rate of 1.5 L min^–1 corresponding to a turnover time of […]. The water temperature and the air temperature in the aquaria room were 10 °C. The lighting was dim and programmed on a 12 h light/12 h dark cycle.
(§2) Three BCF experiments were conducted, one each for MIX1 and MIX2 at pH ∼7.6 (denoted MIX1 and MIX2 in the following), and one for MIX1 at pH ∼6.2 (MIX1pH). Each experiment consisted of a 14 d exposure phase and a 28 d depuration phase. There were also two control aquaria where unexposed fish were kept, one at pH 7.6 and one at pH 6.2. For the pH 6.2 aquaria, a 20% v:v formic acid solution was pumped into a premixing basin where it was mixed with the inflowing water before entering the aquarium. pH sensors monitored pH in the premixing basin and the aquarium. The pH for the MIX1 and MIX2 experiments was governed by the pH of the water supply. Water samples were collected at 8 time points during each experiment for the determination of pH and alkalinity. Water samples were collected daily during the exposure phase for determination of total organic carbon (TOC), which was measured with NDIR detection after acidification, purging and high-temperature catalytic combustion (Shimadzu TOC-L).
(§3) For the exposure phase, a methanol solution of the test chemical mixture was infused continuously at 4.0 μL min^–1 into the water inflow of the aquarium using a syringe pump. The target concentrations of the chemicals in water ranged from 2.5 to 100 μg L^–1 (Table 1). They were selected to be as low as possible to minimize the risk of toxic effects while still being high enough to enable collection of high-quality data, building on the results of the tissue distribution experiment.[32] The syringe pump was started in an aquarium containing no fish. After 16 h to allow the concentrations to stabilize, ∼80 rainbow trout were transferred to the aquarium. Over the following 14 d water samples were collected and fish were sacrificed according to the schedule in Table S5. The remaining fish were then transferred to a second aquarium that received water without chemical addition. Over the following 28 d further water samples were collected and fish were sacrificed (Table S5).
(§4) At each fish sampling, 4–6 fish were sacrificed. Fish were also sampled periodically from the control aquaria. Following stunning and severance of the spinal cord, the fish were placed in a polyethylene bag, weighed, and immediately frozen at −20 °C. The median fish weight at sacrifice was 10.94 g, with a 25th and 75th percentile of 8.43 and 13.58 g, respectively.
(§5) Three fish from each time point were prioritized for analysis based on proximity to the median fish weight. Each fish was semithawed, cut into 3–4 pieces, and homogenized with an Ultra-Turrax device. 150 mg of the homogenate was transferred to a preweighed 13 mL polypropylene tube, centrifuged to a pellet, and weighed. 50 μL of methanol was added and the prepared aliquot was frozen. For extraction internal standard solution (isotope labeled standards of Q10 (D21), Q14 (D29), and P16 (D33)), 3 mL of methanol and 3 steel balls (3.2 mm diameter) were added to the prepared aliquot. This mixture was mixed in a bullet blender for 1 min, and then placed in an ultrasound bath at 50 °C for 60 min. Following centrifugation, the supernatant was decanted and the extraction was repeated. The extracts were combined and a portion corresponding to 25–50 mg homogenate was cleaned up on a weak cationic exchange SPE column (WCX, 60 mg) as described elsewhere.[32] […]

[3] = system: juvenile rainbow trout (Oncorhynchus mykiss); assay: as above; assay type: in vivo; conditions: for uptake rate constant (kU): 14 d exposure, 28 d depuration; for uptake rate constant (kU) / BCF (kU/kT) / measured total elimination rate constant (kT): whole fish; for factor by which BCF is lower for the QAC than for the tertiary amine with the same chain length: pH 7.6, Q10 vs T10, Q14 vs T14
Protocol: as §1, §2, §3, §4, §5

gills of rainbow trout = assay: Mechanistic one-box mass balance model of gill uptake and elimination; conditions: for predicted gill elimination rate constant eq 1 (k2): from measured kU and modeled αW, αB, DFW
Source text: To gain more mechanistic insight into the results, we formulated a simple one-box mass balance model of chemical bioconcentration in fish that considered diffusive uptake and elimination across the gills as well as biotransformation.[33] The flow of water across the gills and the flow of blood through the gills were modeled as perfusion limited resistances that constrain gill uptake and elimination. […] Consequently, these resistances are unknowns. Ion trapping effects caused by differences in pH between water at the gill surface and blood in the gills are considered, drawing on previous work on the uptake and elimination of ionizable organic chemicals across the gills of rainbow trout.[22],[23] Partitioning of the chemical from the dissolved phase into blood and into whole fish was calculated as the product of the membrane lipid–water distribution ratio (DMLW,T, including partitioning of both the neutral and the charged forms) and the fraction of membrane lipid in blood and whole fish. A detailed description of the model is provided in the SI (Text S3).
The contribution of the water perfusion and blood perfusion resistances were compared with the overall resistance for transport across the gills from water to blood (RW→B), which was calculated from the measured kU according to equation S4.3. […] For all of the other chemicals the blood resistance is insignificant compared to the overall resistance.
The rate constant for elimination across the gills, k2, can be defined as follows: [drawing 1] 1 where αB and αW are the neutral fractions of the chemical in the blood and in the water at the gill surface, respectively, and DFW is the fish-water distribution ratio of the chemical at the pH of blood (8.1) (see Text S3). Using the measured kU and the values of αW, αB, and DFW estimated for the model, k2 was calculated (Table 2).

[4] = set-up: method as in Perrin 1965, SRC, REACH, Perrin 1972, Hall 1957; conditions: ref Perrin 1965, SRC, REACH, Perrin 1972, Hall 1957, cited from earlier work; for pKa used (selected value): selected per amine type, weighted from simulated and experimental analogue data; for pKa, experimental reference data: 25 °C
[5] = Membrane-water partition coefficient of the charged form (DMLW,C); assay type: physicochemical; conditions: extrapolated from Timmer and Droge (2017)
Protocol: Table S3: Test chemical properties
Abbr. pKa$ Log DOC§ Log DMLW,C# SMILES
$ pKa values derived/reported for different alkylamine type analogues. The selected value is expected to be independent of chain length for all longer chain homologues, using a weighted value obtained from the different sources with more focus on experimental data:
Algorithm / simulated data Experimental reference data (25 °C)
Chem ACD/ COSMO- selected
(https://echa.europa.eu/registration-dossier/-

[6] = ref Timmer and Droge (2017); cited from earlier work

k el ([2]; pH 7.6 (MIX1, MIX2)): 9.44e-07 s⁻¹ | uptake rate constant (kU) ([3]; pH 7.6 (MIX1, MIX2), 10 °C): 4.8 L kg^–1 h^–1 | BCF (kU/kT) ([3]; pH 7.6 (MIX1, MIX2)): 1390 L kg^–1 | factor by which k2 was less than kT (gills of rainbow trout): ~10 | k2/kT (gills of rainbow trout; pH 7.6 (MIX1, MIX2)): 0.17 | predicted gill elimination rate constant eq 1 (k2) (gills of rainbow trout; pH 7.6 (MIX1, MIX2)): 0.0006 h^–1 | Log DMLW,C (membrane-water partition coefficient of the charged form) [5]: 6.16
Compound: CCCCCCCCCCCCCN [P13, Tridecylamine]
pKa used (selected value) [4]: C13NH2 (10.6)

factor by which BCF is lower at pH 6.2 than at pH 7.6 ([3]; MIX1 vs MIX1pH): 22 | BCF (kU/kT) ([3]; pH 6.2 (MIX1pH)): 0.1 ^b L kg^–1 | BCF (kU/kT) ([3]; pH 7.6 (MIX1, MIX2)): 2.2 L kg^–1
Compound: CCCCCCCCCN [P9, Nonylamine]
Log DMLW,C (membrane-water partition coefficient of the charged form) [6]: 3.72 | pKa used (selected value) [4]: C9NH2 (10.6)

initial rapid sorption as share of the cumulative uptake over 14 d ([3]; 14 d exposure phase): < 5% | factor by which BCF is lower at pH 6.2 than at pH 7.6 ([3]; MIX1 vs MIX1pH): no influence of pH on BCF | factor by which kU is lower at pH 6.2 than at pH 7.6 ([3]; MIX1 vs MIX1pH): the same | uptake rate constant (kU) ([3]; pH 6.2 (MIX1pH)): 0.121 L kg^–1 h^–1 | BCF (kU/kT) ([3]; pH 6.2 (MIX1pH)): 55 L kg^–1 | measured total elimination rate constant (kT) ([3]; pH 6.2 (MIX1pH)): 0.0022 h^–1 | uptake rate constant (kU) ([3]; pH 7.6 (MIX1, MIX2), 10 °C): 0.104 L kg^–1 h^–1 | BCF (kU/kT) ([3]; pH 7.6 (MIX1, MIX2)): 51 L kg^–1 | measured total elimination rate constant (kT) ([3]; pH 7.6 (MIX1, MIX2)): 0.0020 h^–1 | factor by which BCF is lower for the QAC than for the tertiary amine with the same chain length [3]: 160
Compound: CCCCCCCCCCCCCC[N+](C)(C)C [Q14, N,N,N-trimethyl-1-tetradecylammonium]
Log DMLW,C (membrane-water partition coefficient of the charged form) [6]: 5.46

k el ([2]; pH 6.2 (MIX1pH)): 1.42e-05 s⁻¹ | k el ([2]; pH 7.6 (MIX1, MIX2)): 2.25e-06 s⁻¹ | factor by which BCF is lower at pH 6.2 than at pH 7.6 ([3]; MIX1 vs MIX1pH): 34 | uptake rate constant (kU) ([3]; pH 6.2 (MIX1pH)): 0.36 L kg^–1 h^–1 | BCF (kU/kT) ([3]; pH 6.2 (MIX1pH)): 7.1 L kg^–1 | uptake rate constant (kU) ([3]; pH 7.6 (MIX1, MIX2), 10 °C): 2.0 L kg^–1 h^–1 | BCF (kU/kT) ([3]; pH 7.6 (MIX1, MIX2)): 250 L kg^–1 | factor by which k2 was less than kT (gills of rainbow trout): ~10 | pH dependency of k2 (factor between pH 7.6 and pH 6.2) (gills of rainbow trout; MIX1 vs MIX1pH): 2.5 | Uptake resistance (gills of rainbow trout; lower pH (6.2), value printed in Figure 3): 744 h m^-1 | k2/kT (gills of rainbow trout; pH 6.2 (MIX1pH)): 0.04 | predicted gill elimination rate constant eq 1 (k2) (gills of rainbow trout; pH 6.2 (MIX1pH)): 0.0022 h^–1 | k2/kT (gills of rainbow trout; pH 7.6 (MIX1, MIX2)): 0.11 | predicted gill elimination rate constant eq 1 (k2) (gills of rainbow trout; pH 7.6 (MIX1, MIX2)): 0.0009 h^–1
Compound: CCCCCCCCCCCCN [P12, Dodecylamine]
Log DMLW,C (membrane-water partition coefficient of the charged form) [6]: 5.58

BCF (kU/kT) ([3]; pH 7.6 (MIX1, MIX2)): <0.2 ^c L kg^–1 | factor by which BCF is lower for the QAC than for the tertiary amine with the same chain length [3]: > 670
Compound: CCCCCCCCCC[N+](C)(C)C [Q10, N,N,N-trimethyl-1-decylammonium]
Log DMLW,C (membrane-water partition coefficient of the charged form) [6]: 3.34

The next lines start with the compound.

Compound: CCCCCCCCCCCCCCCCN(C)C [N,N-dimethylhexadecan-1-amine]
SURFACE TENSION [1]: 30.5 mN/m

Compound: CCCCN(C)C [N,N-dimethylbutylamine, reference compound]
pKa, experimental reference data [4]: 10.02

Compound: CCCCCCCCCC[N+](C)(C)CCCCCCCCCC.CCCCCCCCCC[N+](C)(C)CCCCCCCCCC.O=C([O-])CCCCC(=O)[O-] [1-Decanaminium,N-decyl-N,N-dimethyl-, hexanedioate(2:1)]
SURFACE TENSION [1]: 32.3 mN/m

Compound: CCCCCCCCN [octylamine, reference compound]
pKa, experimental reference data [4]: 10.7 and 10.6

Compound: CCCCCCCCCCCCCCCCCCN(C)C [dimethyl(octadecyl)amine]
SURFACE TENSION [1]: 32.2 mN/m
